Test results: US11014911B2, “CDK2 inhibitors” (Pfizer Inc., priority 2019, dated 2021)

Experiments:
[1] = target: CDK2/Cyclin E1 full length (Homo sapiens (Human), UniProt P24941); assay: CDK2/Cyclin E1 full length mobility shift assay; assay type: biochemical
[2] = target: GSK3β (H350L) (Homo sapiens (Human), UniProt P49841); conditions: read-out: GSK3β Ki
Sequence of GSK3β (H350L) (P49841 whole entry, stated change not applied): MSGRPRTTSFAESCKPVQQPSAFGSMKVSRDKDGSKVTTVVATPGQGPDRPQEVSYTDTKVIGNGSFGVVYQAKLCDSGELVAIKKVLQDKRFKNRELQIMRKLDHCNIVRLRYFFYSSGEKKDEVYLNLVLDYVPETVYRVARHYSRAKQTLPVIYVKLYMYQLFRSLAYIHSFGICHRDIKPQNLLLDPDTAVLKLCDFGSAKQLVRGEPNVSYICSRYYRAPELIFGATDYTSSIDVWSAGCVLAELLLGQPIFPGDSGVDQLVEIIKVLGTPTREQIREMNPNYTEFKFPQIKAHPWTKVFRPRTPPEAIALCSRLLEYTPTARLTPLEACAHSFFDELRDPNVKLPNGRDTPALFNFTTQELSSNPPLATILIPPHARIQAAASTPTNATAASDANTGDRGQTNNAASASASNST
Protocol: The assay was initiated with the addition of ATP, following 15 minutes pre-incubation of enzyme and inhibitor at room temperature in the reaction mixture. The reaction was stopped after 30 minutes at room temperature by the addition of 50 μL of 80 mM EDTA.

Ki [1] [nM] | Ki [2] [nM] | SMILES
0.88 | 51.5 | C[C@H]1CCN1C(=O)O[C@@H]1CC[C@H](c2cc(NC(=O)c3cnnn3C)n[nH]2)C1 [Example 586, (1R,3S)-3-(3-{[(1-methyl-1H-1,2,3-triazol-5-yl)carbonyl]amino}-1H-pyrazol-5-yl)cyclopentyl (2S)-2-methylazetidine-1-carboxylate]
1.44 | 8.58 | C[C@]1(O)CC[C@H](NC(=O)O[C@H]2CC[C@@H](c3cc(NC(=O)Cc4ccccc4)n[nH]3)C2)CC1 [Example 559, (1S,3R)-3-{3-[(phenylacetyl)amino]-1H-pyrazol-5-yl}cyclopentyl (trans-4-hydroxy-4-methylcyclohexyl)carbamate]
0.41 | 5.12 | COc1cc(CC(=O)Nc2cc([C@@H]3CC[C@H](OC(=O)N[C@H]4CC[C@@](C)(O)CC4)C3)[nH]n2)ccn1 [Example 568, (1S,3R)-3-(3-{[(2-methoxypyridin-4-yl)acetyl]amino}-1H-pyrazol-5-yl)cyclopentyl (cis-4-hydroxy-4-methylcyclohexyl)carbamate]
0.33 | 24.4 | COc1ncc(CC(=O)Nc2cc([C@H]3CC[C@@H](OC(=O)NC(C)C)C3)[nH]n2)s1 [Example 281, (1R,3S)-3-(3-{[(2-methoxy-1,3-thiazol-5-yl)acetyl]amino}-1H-pyrazol-5-yl)cyclopentyl propan-2-ylcarbamate]
0.22 | 17.7 | CC1(C)CCN1C(=O)O[C@@H]1CC[C@H](c2cc(NC(=O)Cc3ccccc3S(C)(=O)=O)n[nH]2)C1 [Example 142]
0.24 | 5.57 | Cn1cc(CC(=O)Nc2cc([C@H]3CC[C@@H](OC(=O)N4CCC4(C)C)C3)[nH]n2)cn1 [Example 148]
0.24 | 9.25 | CCCNC(=O)O[C@@H]1CC[C@H](c2cc(NC(=O)Cc3ccc4c(cnn4C)c3)n[nH]2)C1 [Example 54]
0.81 | 9.7 | CCN(C)C(=O)O[C@@H]1CC[C@H](c2cc(NC(=O)Cc3ccnc(OC)c3)n[nH]2)C1 [Example 242, (1R,3S)-3-(3-{[(2-methoxypyridin-4-yl)acetyl]amino}-1H-pyrazol-5-yl)cyclopentyl ethyl(methyl)carbamate]
0.31 | 9.2 | Cc1cc(CC(=O)Nc2cc([C@H]3CC[C@@H](OC(=O)N4CCOCC4(C)C)C3)[nH]n2)on1 [Example 649, (1R,3S)-3-(3-{[(3-methyl-1,2-oxazol-5-yl)acetyl]amino}-1H-pyrazol-5-yl)cyclopentyl 3,3-dimethylmorpholine-4-carboxylate]
0.17 | 117 | CC[C@H](C)NC(=O)O[C@@H]1CC[C@H](c2cc(NC(=O)Cc3cc(OC)ccc3S(C)(=O)=O)n[nH]2)C1 [Example 50]
0.11 | 2.45 | CCCNC(=O)O[C@H]1CC[C@@H](c2cc(NC(=O)Cc3ccc4[nH]c(C)nc4c3)n[nH]2)C1 [Example 23]
0.81 | > 95.3 | CCCNC(=O)O[C@H]1CC[C@@H](c2cc(NC(=O)c3ccc(C)nc3C)n[nH]2)C1 [Example 180, (1S,3R)-3-(3-{[(2,6-dimethylpyridin-3-yl)carbonyl]amino}-1H-pyrazol-5-yl)cyclopentyl propylcarbamate]
0.21 | 27.9 | CCCNC(=O)O[C@H]1CC[C@@H](c2cc(NC(=O)Cc3cncs3)n[nH]2)C1 [Example 20]
0.33 | 31.2 | CC[C@H](C)NC(=O)O[C@@H]1CC[C@H](c2cc(NC(=O)Cc3cnc(C)cn3)n[nH]2)C1 [Example 34]
1.73 | 18.2 | CCCNC(=O)O[C@H]1CC[C@@H](c2cc(NC(=O)Cc3ccccn3)n[nH]2)C1 [Example 171, (1S,3R)-3-{3-[(pyridin-2-ylacetyl)amino]-1H-pyrazol-5-yl}cyclopentyl propylcarbamate]
0.47 | 12.2 | Cc1cc(CC(=O)Nc2cc([C@H]3CC[C@@H](OC(=O)N4[C@@H](C)COC[C@@H]4C)C3)[nH]n2)on1 [Example 648, (1R,3S)-3-(3-{[(3-methyl-1,2-oxazol-5-yl)acetyl]amino}-1H-pyrazol-5-yl)cyclopentyl (3S,5S)-3,5-dimethylmorpholine-4-carboxylate]
0.62 | 32 | CC(C)(C)NC(=O)O[C@@H]1CC[C@H](c2cc(NC(=O)Cc3ccccn3)n[nH]2)C1 [Example 294, (1R,3S)-3-{3-[(pyridin-2-ylacetyl)amino]-1H-pyrazol-5-yl}cyclopentyl tert-butylcarbamate]
0.19 | 11.7 | CC1(C)CCCN1C(=O)O[C@@H]1CC[C@H](c2cc(NC(=O)Cc3ccon3)n[nH]2)C1 [Example 135]
0.09 | 28.1 | C[C@@H](CC(F)(F)F)NC(=O)O[C@@H]1CC[C@H](c2cc(NC(=O)c3cnnn3C)n[nH]2)C1 [Example 91]
0.37 | 7.23 | C[C@@H]1COCCN1C(=O)O[C@@H]1CC[C@H](c2cc(NC(=O)Cc3cc(F)cc(F)c3)n[nH]2)C1 [Example 645, (1R,3S)-3-(3-{[(3,5-difluorophenyl)acetyl]amino}-1H-pyrazol-5-yl)cyclopentyl (3R)-3-methylmorpholine-4-carboxylate]
0.15 | 2.89 | COc1ccc(CC(=O)Nc2cc([C@H]3CC[C@@H](OC(=O)N(C)C(C)C)C3)[nH]n2)cn1 [Example 59]
0.1 | 45.7 | CC[C@H](C)NC(=O)O[C@@H]1CC[C@H](c2cc(NC(=O)c3ccnn3CCO)n[nH]2)C1 [Example 53]

SMILES | Ki [1] [nM] | Ki [2] [nM]
CC[C@H](C)CNC(=O)O[C@@H]1CC[C@H](c2cc(NC(=O)Cc3cnc(C)s3)n[nH]2)C1 [Example 417, (1R,3S)-3-(3-{[(2-methyl-1,3-thiazol-5-yl)acetyl]amino}-1H-pyrazol-5-yl)cyclopentyl [(2S)-2-methylbutyl]carbamate] | 0.81 | 12.6
CC[C@@H](C)NC(=O)O[C@@H]1CC[C@H](c2cc(NC(=O)Cc3ccno3)n[nH]2)C1 [Example 322, (1R,3S)-3-{3-[(1,2-oxazol-5-ylacetyl)amino]-1H-pyrazol-5-yl}cyclopentyl (2R)-butan-2-ylcarbamate] | 0.93 | 81.2
C[C@@H](CC(F)(F)F)NC(=O)O[C@@H]1CC[C@H](c2cc(NC(=O)Cc3cnn(C)c3)n[nH]2)C1 [Example 92] | 0.1 | 16.6
CC[C@H](C)NC(=O)O[C@@H]1CC[C@H](c2cc(NC(=O)Cc3cn4nc(C)sc4n3)n[nH]2)C1 [Example 359, (1R,3S)-3-(3-{[(2-methylimidazo[2,1-b][1,3,4]thiadiazol-6-yl)acetyl]amino}-1H-pyrazol-5-yl)cyclopentyl (2S)-butan-2-ylcarbamate] | 0.39 | 28.5
CCCNC(=O)O[C@@H]1CC[C@H](c2cc(NC(=O)Cc3cc(OC)ncc3S(C)(=O)=O)n[nH]2)C1 [Example 214, (1R,3S)-3-[3-({[2-methoxy-5-(methylsulfonyl)pyridin-4-yl]acetyl}amino)-1H-pyrazol-5-yl]cyclopentyl propylcarbamate] | 0.37 | 131
CCCNC(=O)O[C@H]1CC[C@@H](c2cc(NC(=O)Cc3ccc(OCCN)cc3)n[nH]2)C1 [Example 198, (1S,3R)-3-[3-({[4-(2-aminoethoxy)phenyl]acetyl}amino)-1H-pyrazol-5-yl]cyclopentyl propylcarbamate] | 0.28 | 52.1
Cc1ncc(CC(=O)Nc2cc([C@@H]3CC[C@H](OC(=O)N[C@H]4CC[C@H](O)CC4)C3)[nH]n2)s1 [Example 551, (1S,3R)-3-(3-{[(2-methyl-1,3-thiazol-5-yl)acetyl]amino}-1H-pyrazol-5-yl)cyclopentyl (trans-4-hydroxycyclohexyl)carbamate] | 0.34 | 2.94
CC[C@H](C)NC(=O)O[C@@H]1CC[C@H](c2cc(NC(=O)c3ccc(C)nc3)n[nH]2)C1 [Example 324, (1R,3S)-3-(3-{[(6-methylpyridin-3-yl)carbonyl]amino}-1H-pyrazol-5-yl)cyclopentyl (2S)-butan-2-ylcarbamate] | 0.54 | 94.3
CC[C@H](C)NC(=O)O[C@@H]1CC[C@H](c2cc(NC(=O)Cc3cc(C)ccc3S(C)(=O)=O)n[nH]2)C1 [Example 371, (1R,3S)-3-[3-({[5-methyl-2-(methylsulfonyl)phenyl]acetyl}amino)-1H-pyrazol-5-yl]cyclopentyl (2S)-butan-2-ylcarbamate] | 0.32 | 161
CC[C@H](C)NC(=O)O[C@@H]1CC[C@H](c2cc(NC(=O)Cc3cnn(C)n3)n[nH]2)C1 [Example 330, (1R,3S)-3-(3-{[(2-methyl-2H-1,2,3-triazol-4-yl)acetyl]amino}-1H-pyrazol-5-yl)cyclopentyl (2S)-butan-2-ylcarbamate] | 0.55 | 86
CC(C)NC(=O)O[C@@H]1CC[C@H](c2cc(NC(=O)c3cnnn3C)n[nH]2)C1 [Example 262, (1R,3S)-3-(3-{[(1-methyl-1H-1,2,3-triazol-5-yl)carbonyl]amino}-1H-pyrazol-5-yl)cyclopentyl propan-2-ylcarbamate] | 0.64 | > 47.6
Cc1cnc(CC(=O)Nc2cc([C@H]3CC[C@@H](OC(=O)NC(C)(C)C)C3)[nH]n2)o1 [Example 11, (1R,3S)-3-(3-{[(5-methyl-1,3-oxazol-2-yl)acetyl]amino}-1H-pyrazol-5-yl)cyclopentyl tert-butylcarbamate] | 0.32 | 36.2
CC[C@H](C)NC(=O)O[C@@H]1CC[C@H](c2cc(NC(=O)Cc3cn4ccsc4n3)n[nH]2)C1 [Example 355, (1R,3S)-3-{3-[(imidazo[2,1-b][1,3]thiazol-6-ylacetyl)amino]-1H-pyrazol-5-yl}cyclopentyl (2S)-butan-2-ylcarbamate] | 1.13 | 18.1
COc1cc(CC(=O)Nc2cc([C@@H]3CC[C@H](OC(=O)N[C@H]4CC[C@H](O)CC4)C3)[nH]n2)ccn1 [Example 555, (1S,3R)-3-(3-{[(2-methoxypyridin-4-yl)acetyl]amino}-1H-pyrazol-5-yl)cyclopentyl (trans-4-hydroxycyclohexyl)carbamate] | 0.37 | 3.58
